Patent US20250136601A1 (priority 2022, published 2025)
pEC50, pKi: −log10 of the molar value. “And” between values parts separate entries of the source, which are not always exact repeats. Identical values can stand only once. Like-named read-outs stand apart in the source and are kept apart here.

Legend:
5-HT2A receptor [1] = target: T1, 5-HT2A receptor (Homo sapiens (Human), UniProt P28223); experiment: radioligand competitive binding assay, [3H]-LSD, 293T membranes
5-HT2A receptor [2] = target: T1, 5-HT2A receptor; experiment: cell-based; type: cell-based; conditions: for Emax: HEK-293T, read-out: β-arrestin2 signaling agonistic activity (percentage in parentheses); for pathway selectivity: β-arrestin2 recruitment versus G protein signaling: without activating the G protein signaling pathway; for Gq signaling agonistic activity (percentage in parentheses): value in parentheses
Procedure: On the second day, the confluent cells from a 6 cm culture dish were digested and reseeded into a 96-well plate at a volume of 100 μL of culture medium per well. On the third day, the drugs were added for testing. The 96-well plate was taken out from the cell incubator to decant the culture medium. 40 μL of the substrate coelenterazine 400a (final concentration 5 μM) was added to each well, and then 20 μL of different drugs were added sequentially from left to right, ensuring that the final concentration of the drug decreased gradually from bottom to top, with two replicates per treatment. Finally, the prepared samples were loaded on a plate reader for signal quantification. The readout values reflected the recruitment of β-arrestin2 to the membrane or the dissociation of G protein trimer. The former indicated the degree of activation of the downstream β-arrestin2 signaling pathway mediated by the 5-HT2A receptor, and the latter indicated the degree of activation of the downstream G protein signaling pathway mediated by the 5-HT2A receptor.

[3] = tested on: corticosterone-exposed mice; experiment: tail suspension test after 21 days of corticosterone exposure; type: in vivo, Male C57BL/6 mice
Procedure: Antidepressant efficacy test method: Male C57BL/6 mice (8 weeks old, purchased from Shanghai Lingchang Biotech Co., Ltd.) were administered a solution of corticosterone in their drinking water at a concentration of 25 μg/mL using drinking water bottles for 21 days. Mice were maintained on a 12-hour light cycle. Corticosterone-containing drinking water was refreshed every other day for the first two weeks, and gradually replaced with corticosterone-free drinking water every two days for the last week. […] TST procedure: mice in the control group and the administration group were suspended by their tails with tape for 6 minutes, and their behavior was recorded by a video camera. The immobility time during the last 4 minutes was manually timed and assessed by an observer who was unaware of the treatment conditions.

[4] = for AUMC0-inf / AUMC0-t / Kel: mice
Procedure: (§1) The concentration of the compound in mouse plasma was determined using LC-MS/MS, and the relevant pharmacokinetic parameters were calculated to investigate the pharmacokinetic characteristics of the compound in mice.
(§2) Experimental design: 60 male C57 mice (purchased from Suzhou JOINN Laboratory Animal Co., Ltd.) were randomly divided into groups based on weight, with 3 mice per group. The mice were fasted with water ad libitum for 12 to 14 hours one day before test-article administration and fed 4 hours after the administration. The route of administration was intraperitoneal (IP), with a dosing concentration of 1 mg/mL, and a solvent formulation of 10% DMSO+90% saline.
(§3) Sample collection: 0.1 mL of blood was collected from the orbit under isoflurane anesthesia before and after test-article administration, transferred to EDTA K2 tubes, and placed on an ice bath. The samples were centrifuged at 5000 rpm for 10 minutes at 4° C., and the plasma was collected. […] Prior to analysis, all plasma samples were stored at −80° C.
(§4) Data processing: Drug concentrations in plasma and brain tissues were measured using LC-MS (API4000QTRAP triple quadrupole tandem mass spectrometer, equipped with an electrospray ionization source (ESI)). The data collection and control system software utilized was Analyst 1.5.1 (Applied Biosystems). The sample peak integration in the spectrum was conducted automatically; the ratio of the sample peak area to the internal standard peak area was used as an indicator to perform regression with the concentration of the sample. Regression method: Linear regression with a weighting factor of 1/X^2. Pharmacokinetic parameters were analyzed using a non-compartmental model in WinNonlin Professional v6.3 (Pharsight, USA). Cmax is the measured maximum plasma concentration, the area under the plasma concentration-time curve (AUC(0→0)) was calculated by the trapezoidal method, and Tmax is the time to reach peak plasma concentration after administration. Experimental data are presented as “Mean±Standard Deviation” (Mean±SD, n≥3) or “Mean” (n=2).

in vivo = conditions: male, C57, mouse, ip
Procedure: as §1, §2, §3, §4

[5] = tested on: head-twitch response in mice; type: in vivo, C57BL/6J mice; conditions: intraperitoneal, at all doses tested, first 30 minutes
Source text: Method: The head-twitch response in mice was detected via oscillatory signals to characterize hallucinogenic effects. Mice (strain C57BL/6J, purchased from Shanghai Lingchang Biotech Co., Ltd.) were anesthetized with 2% isoflurane. A small portion of the scalp was removed from the center of the dorsal cranium. A custom-made small neodymium magnet (4 mm×4 mm×2 mm) was attached to the center of the dorsal cranium using dental resin. The magnet N-S poles were kept parallel to the dorsoventral aspect of the implant. The mice were allowed to recover for 1 week before testing. To record precise head movements, the mice were placed in a glass beaker with a diameter of 12 cm, surrounded by 150 turns of #30 enameled copper wire. The output signal from the coil was recorded using a PowerLab/4SP instrument installed with LabChart V8.1.16 software. Coil voltage was amplified, low-pass filtered at 10 kHz to remove radio frequency interference, and sampled at 40 kHz. For the detection of head-twitch response in mice, LabChart data were processed with a digital band-pass filter at 40 to 200 Hz. The head-twitch response in mice was identified by searching for sinusoidal wavelets that met the following criteria: 1) containing more than two bipolar peaks; 2) amplitude exceeding background noise level; 3) duration less than 120 milliseconds. 1 hour prior to the test, the mice were transferred to the test room for acclimatization. Subsequently, the mice were placed in the beaker for 30 minutes, and baseline head-twitch response values were recorded. Immediately after baseline recording, the mice were injected intraperitoneally with the test compound, and head-twitch response values were recorded for 1 to 2 hours post-dose, depending on the compound used. Statistical values were taken from the first 30 minutes.

dopamine D2 receptor = dopamine D2 receptor (Homo sapiens (Human), UniProt P14416); experiment: radioligand competitive binding assay, [3H]-Methylspiperone, 293T membranes; conditions: affinity for the dopamine D2 receptor
Procedure: Method: The affinity of the compounds of the present disclosure for the dopamine D2 receptor was determined using a radioligand competitive binding assay as follows. In the first step, a cell membrane component containing dopamine D2 receptor was prepared. […] 48 hours post-transfection, the 10 cm culture dish was taken out from the cell incubator and the cultured cells had expressed the dopamine D2 receptor. The culture medium was aspirated using a vacuum pump, and 3 mL of lysis buffer was added to each culture dish. The cells were then placed in a cold room at 4° C. for 10 minutes. After the cells were detached, they were transferred to a 15 mL centrifuge tube and centrifuged at 1500 rpm for 5 minutes at 4° C., and the supernatant was discarded. The cell pellet was transferred to a tissue homogenizer, and 3 mL of lysis buffer was added. Sufficient grinding was applied to break the cells. The cell suspension was then equally aliquoted into several Eppendorf tubes and centrifuged at 12000 rpm for 5 minutes at 4° C., and the supernatant was discarded. The resulting precipitate was the cell membrane component containing the dopamine D2 receptor. […] The machine readout value reflected the amount of [3H]-Methylspiperone bound on the membrane, and after further data processing, the affinity Ki values of different compounds for the dopamine D2 receptor were obtained.

[6] = affinity for the 5-HT2A receptor, [3H]-LSD
[7] = first value of cell, NA = no agonistic activity, read-out: Gq signaling agonistic activity (potency)
[8] = first value of cell, NA = no agonistic activity, read-out: β-arrestin2 signaling agonistic activity (potency)

T1 sequence (P28223 whole entry): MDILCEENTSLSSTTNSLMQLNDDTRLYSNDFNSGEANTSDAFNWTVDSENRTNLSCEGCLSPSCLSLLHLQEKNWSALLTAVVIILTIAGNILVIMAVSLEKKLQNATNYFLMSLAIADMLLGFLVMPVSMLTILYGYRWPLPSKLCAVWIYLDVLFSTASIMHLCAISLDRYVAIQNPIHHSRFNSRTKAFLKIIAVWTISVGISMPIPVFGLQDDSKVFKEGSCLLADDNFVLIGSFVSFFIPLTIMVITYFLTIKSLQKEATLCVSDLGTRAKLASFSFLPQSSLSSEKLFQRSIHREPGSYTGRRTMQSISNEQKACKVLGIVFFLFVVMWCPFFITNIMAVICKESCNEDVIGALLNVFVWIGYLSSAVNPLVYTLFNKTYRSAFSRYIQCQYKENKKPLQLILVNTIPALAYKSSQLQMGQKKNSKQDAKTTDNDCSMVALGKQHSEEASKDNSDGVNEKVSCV
dopamine D2 receptor, sequence (P14416 whole entry, species assumed): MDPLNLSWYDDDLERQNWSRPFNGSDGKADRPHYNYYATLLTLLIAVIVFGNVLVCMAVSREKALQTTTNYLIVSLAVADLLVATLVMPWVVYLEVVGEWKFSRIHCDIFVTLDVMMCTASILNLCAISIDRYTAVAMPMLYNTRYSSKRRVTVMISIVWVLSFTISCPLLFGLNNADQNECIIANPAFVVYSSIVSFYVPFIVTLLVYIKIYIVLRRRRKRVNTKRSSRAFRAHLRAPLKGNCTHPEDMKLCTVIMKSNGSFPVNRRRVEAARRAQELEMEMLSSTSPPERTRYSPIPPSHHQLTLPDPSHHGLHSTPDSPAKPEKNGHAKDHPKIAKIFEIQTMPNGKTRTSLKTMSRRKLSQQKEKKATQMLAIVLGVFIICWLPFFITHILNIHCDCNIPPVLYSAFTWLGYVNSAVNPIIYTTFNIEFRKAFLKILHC

SMILES: COc1ccccc1CCN1CC[C@H]2[C@@H](C1)c1cccc3c1N2CCCN3C (single isomer, unassigned) [Compound I-12]
- pKi (5-HT2A receptor [1]): > 7.00
- pKi (5-HT2A receptor [1]; [6]): 6.72

SMILES: COc1ccccc1CCN1CC[C@@H]2[C@H](C1)c1cccc3c1N2CCCN3C (single isomer, unassigned) [Compound I-13]
- pKi (5-HT2A receptor [1]): > 7.00
- pKi (5-HT2A receptor [1]; [6]): 7.47
- pEC50 (5-HT2A receptor [2]): 6.74
- Emax (5-HT2A receptor [2]): 51.4%
- pathway selectivity: β-arrestin2 recruitment versus G protein signaling (5-HT2A receptor [2]): selectively activate the recruitment of β-arrestin2

SMILES: COc1ccccc1CCCN1CC[C@H]2[C@@H](C1)c1cccc3c1N2CCCN3C (single isomer, unassigned) [Compound I-14]
- pKi (5-HT2A receptor [1]): > 7.00

SMILES: COc1ccccc1CCCN1CC[C@@H]2[C@H](C1)c1cccc3c1N2CCCN3C (single isomer, unassigned) [Compound I-15]
- pKi (5-HT2A receptor [1]): > 7.00
- pEC50 (5-HT2A receptor [2]): 7.01
- Emax (5-HT2A receptor [2]): 24.3%

SMILES: COc1ccccc1CCCN1CC[C@H]2[C@@H](C1)c1cccc3c1N2CCC3 (single isomer, unassigned) [Compound I-18, 10-(3-(2-methoxyphenyl)propyl)-5,6,7a,8,9,10,11,11a-octahydro-4H-pyrido[3′,4′:4,5]pyrrolo[3,2,1-i]quinoline]
- pKi (5-HT2A receptor [1]): > 7.00

SMILES: COc1ccccc1CCCN1CC[C@@H]2[C@H](C1)c1cccc3c1N2CCC3 (single isomer, unassigned) [Compound I-19]
- pKi (5-HT2A receptor [1]): > 7.00
- pKi (5-HT2A receptor [1]; [6]): 7.74
- pEC50 (5-HT2A receptor [2]): 6.25
- Emax (5-HT2A receptor [2]): 59.4%
- pathway selectivity: β-arrestin2 recruitment versus G protein signaling (5-HT2A receptor [2]): selectively activate the recruitment of β-arrestin2

SMILES: COc1ccccc1CCCN1CC[C@@H]2[C@H](C1)c1cccc3c1N2CCO3 (single isomer, unassigned) [Compound I-23]
- antidepressant effect in the mouse tail suspension test ([3]; 10 mg/kg single-injection group, after 7 days): remained significant
- antidepressant effect in the mouse tail suspension test ([3]; 10 mg/kg single-injection group, after 14 days): remained significant
- antidepressant effect in the mouse tail suspension test ([3]; one day after a single administration): significant antidepressant effect
- AUMC0-inf ([4]; brain, 5 mg/kg IP): 1698 h · h · ng · g^−1
- AUMC0-t ([4]; brain, 5 mg/kg IP): 1645 h · h · ng · g^−1
- Kel ([4]; brain, 5 mg/kg IP): 0.630 h⁻¹
- MRT ([4]; male, C57, mouse, in vivo, ip, 5 mg/kg): 0.932 h
- AUC0-t ([4]; mouse, in vivo, ip, 5 mg/kg): 1816 ng·h/g
- AUMC0-inf ([4]; plasma, 5 mg/kg IP): 794 h · h · ng · mL^−1
- AUMC0-t ([4]; plasma, 5 mg/kg IP): 769 h · h · ng · mL^−1
- Kel ([4]; plasma, 5 mg/kg IP): 0.678 h⁻¹
- AUC0-t (in vivo; 5 mg/kg): 537 ng·h/mL
- Cmax (in vivo; 5 mg/kg): 272 ng/mL and 1420 ng/g
- Tmax (in vivo; 5 mg/kg): 0.5 h
- MRT (in vivo; 5 mg/kg): 1.47 h
- half-life (in vivo; 5 mg/kg, T1/2, brain, 5 mg/kg IP, mice): 1.1 h
- half-life (in vivo; 5 mg/kg, T1/2, plasma, 5 mg/kg IP, mice): 1.02 h
- hallucinogenic effects (head-twitch response) [5]: did not induce hallucinogenic effects

SMILES: COc1ccccc1CCCN1CC[C@H]2[C@@H](C1)c1cccc3c1N2CCCS3 (single isomer, unassigned) [Compound I-26]
- pKi (5-HT2A receptor [1]): > 7.00
- pKi (5-HT2A receptor [1]; [6]): 7.03

SMILES: COc1ccccc1CN1CC[C@H]2[C@@H](C1)c1cccc3c1N2CCN3C [Compound I-1]
- Emax (5-HT2A receptor [2]): 60.2%
- pEC50 (5-HT2A receptor [2]; [7]): 6.92
- pEC50 (5-HT2A receptor [2]; [8]): 6.76
- Gq signaling agonistic activity (percentage in parentheses) (5-HT2A receptor [2]): 67.0%

SMILES: CN1CCN2c3c(cccc31)[C@@H]1CN(Cc3ccccc3O)CC[C@@H]12 [Compound I-2]
- Emax (5-HT2A receptor [2]): 68.4%
- pEC50 (5-HT2A receptor [2]; [7]): 6.51
- pEC50 (5-HT2A receptor [2]; [8]): 6.64
- Gq signaling agonistic activity (percentage in parentheses) (5-HT2A receptor [2]): 65.3%

SMILES: COc1ccccc1CCN1CC[C@H]2[C@@H](C1)c1cccc3c1N2CCN3C [Compound I-3]
- pKi (5-HT2A receptor [1]): > 7.00
- pKi (dopamine D2 receptor): 5.81
- Emax (5-HT2A receptor [2]): 39%
- Gq signaling agonistic activity (percentage in parentheses) (5-HT2A receptor [2]): 20.2%
- hallucinogenic effects (head-twitch response) [5]: did not induce hallucinogenic effects

SMILES: COc1cccc(CCN2CC[C@H]3[C@@H](C2)c2cccc4c2N3CCN4C)c1 [Compound I-4]
- pKi (5-HT2A receptor [1]): > 7.00
- Emax (5-HT2A receptor [2]): 44.2%
- Gq signaling agonistic activity (percentage in parentheses) (5-HT2A receptor [2]): 13.7%

SMILES: COc1ccc(CCN2CC[C@H]3[C@@H](C2)c2cccc4c2N3CCN4C)cc1 [Compound I-5]
- pEC50 (5-HT2A receptor [2]): 6.17
- Emax (5-HT2A receptor [2]): 3.2%

SMILES: COc1ccc(OC)c(CCN2CC[C@H]3[C@@H](C2)c2cccc4c2N3CCN4C)c1 [Compound I-8, (6bR,10aS)-8-(2,5-dimethoxy)-3-methyl-2,3,6b,7,8,9,10,10a-octahydro-1H-pyrido[3′,4′:4,5]pyrrolo[1,2,3-de]quinoxaline]
- pKi (5-HT2A receptor [1]; [6]): 5.51

SMILES: CN1CCN2c3c(cccc31)[C@@H]1CN(CCc3ccccc3O)CC[C@@H]12 [Compound I-9, 2-(2-((6bR,10aS)-3-methyl-2,3,6b,9,10,10a-hexahydro-1H-pyrido[3′,4′:4,5]pyrrolo[1,2,3-de]quinoxalin-8(7H)-yl)ethyl)phenol]
- pKi (5-HT2A receptor [1]): > 7.00
- pKi (5-HT2A receptor [1]; [6]): 7.51
- pEC50 (5-HT2A receptor [2]): 7.12
- Emax (5-HT2A receptor [2]): 14.4%

SMILES: COc1ccccc1CCCN1CC[C@H]2[C@@H](C1)c1cccc3c1N2CCN3C [Compound I-10]
- pKi (5-HT2A receptor [1]): > 7.00
- pKi (dopamine D2 receptor): 5.73
- AUMC0-inf ([4]; brain, 10 mg/kg IP): 2054 h · h · ng · g^−1
- AUMC0-t ([4]; brain, 10 mg/kg IP): 1979 h · h · ng · g^−1
- Kel ([4]; brain, 10 mg/kg IP): 0.865 h⁻¹
- AUC0-inf ([4]; mouse, in vivo, ip, 10 mg/kg): 1346 ng·h/g
- AUC0-t ([4]; mouse, in vivo, ip, 10 mg/kg): 1335 ng·h/g
- AUMC0-inf ([4]; plasma, 10 mg/kg IP): 1230 h · h · ng · mL^−1
- AUMC0-t ([4]; plasma, 10 mg/kg IP): 1169 h · h · ng · mL^−1
- Kel ([4]; plasma, 10 mg/kg IP): 0.654 h⁻¹
- pEC50 (5-HT2A receptor [2]): 6.69
- Emax (5-HT2A receptor [2]): 12.7%
- AUC0-inf (in vivo; 10 mg/kg): 582 ng·h/mL
- AUC0-t (in vivo; 10 mg/kg): 576 ng·h/mL
- Cmax (in vivo; 10 mg/kg): 225 ng/mL and 566 ng/g
- MRT (in vivo; 10 mg/kg, brain, 10 mg/kg IP, mice): 1.53 h
- MRT (in vivo; 10 mg/kg, plasma, 10 mg/kg IP, mice): 2.11 h
- half-life (in vivo; 10 mg/kg, T1/2, brain, 10 mg/kg IP, mice): 0.801 h
- half-life (in vivo; 10 mg/kg, T1/2, plasma, 10 mg/kg IP, mice): 1.06 h
- Tmax (in vivo; 10 mg/kg, tmax, brain, 10 mg/kg IP, mice): 0.5 h
- Tmax (in vivo; 10 mg/kg, tmax, plasma, 10 mg/kg IP, mice): 0.083 h
- hallucinogenic effects (head-twitch response) [5]: did not induce hallucinogenic effects

SMILES: CN1CCN2c3c(cccc31)[C@@H]1CN(CCCc3ccccc3O)CC[C@@H]12 [Compound I-11, 2-(3-((6bR,10aS)-3-methyl-2,3,6b,9,10,10a-hexahydro-1H-pyrido[3′,4′:4,5]pyrrolo[1,2,3-de]quinoxalin-8(7H)-yl)propyl)phenol]
- pKi (5-HT2A receptor [1]): > 7.00
- pKi (5-HT2A receptor [1]; [6]): 7.05
- Emax (5-HT2A receptor [2]): 36.8%
- Gq signaling agonistic activity (percentage in parentheses) (5-HT2A receptor [2]): 9.7%

SMILES: COc1ccccc1CCCN1CC[C@@H]2[C@H](C1)c1cccc3c1N2CCCS3 [Compound I-27, (8aR,12aS)-11-(3-(2-methoxyphenyl)propyl)-6,7,8a,9,10,11,12,12a-octahydro-5H-pyrido[4,3-b][1,4]thiazepino[2,3,4-hi]indole]
- pKi (5-HT2A receptor [1]): > 7.00
- pKi (5-HT2A receptor [1]; [6]): 8.10
- pEC50 (5-HT2A receptor [2]): 6.06
- Emax (5-HT2A receptor [2]): 35.7%
- pathway selectivity: β-arrestin2 recruitment versus G protein signaling (5-HT2A receptor [2]): selectively activate the recruitment of β-arrestin2
